Laboratory results as given in patent publication US5162322A, “Method of treating anxiety with 5-[(4-aryl or heteroaryl-1-piperazinyl]alkyl)-2-oxazolidinones” (A. H. Robbins Company, Incorporated, priority 1991, dated 1992).
Structures can show the parent of a compound that is named as a salt. Where two headings read alike, the source gives them in different places.

Key:
5HT1A receptors = molecular target: T1, 5HT1A receptors (Canis lupus familiaris, UniProt Q6XXX9); assay: biochemical; format: binding, dog
T1 sequence (Q6XXX9 1-423): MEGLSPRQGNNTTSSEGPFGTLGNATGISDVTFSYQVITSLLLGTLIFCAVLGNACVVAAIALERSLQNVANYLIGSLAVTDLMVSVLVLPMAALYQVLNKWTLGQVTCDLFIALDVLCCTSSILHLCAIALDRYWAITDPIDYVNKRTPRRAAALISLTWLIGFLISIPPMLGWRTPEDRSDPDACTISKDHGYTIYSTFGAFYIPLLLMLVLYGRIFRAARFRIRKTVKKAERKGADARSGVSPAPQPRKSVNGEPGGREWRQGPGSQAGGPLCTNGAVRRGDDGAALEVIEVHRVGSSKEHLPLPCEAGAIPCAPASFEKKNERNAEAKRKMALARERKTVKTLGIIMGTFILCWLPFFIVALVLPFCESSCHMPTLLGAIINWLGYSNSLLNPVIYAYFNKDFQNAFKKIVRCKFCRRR
Description: (§1) Anxiolytic properties were determined using an in vitro assay in which competive binding with the 5-HT1A specific agonist, [^3 H]8-hydroxy-2-(di-n-propylamino)tetralin(8-OH-DPAT) to 5HT1A receptors in the dog hippocampus membrane preparation is measured [Hall et al, J. Neurochem. […] Several compounds were also tested in mice is the exploratory light/dark method as described by Young and Johnson, Soc. […] 1988, 14, 207 in which the exploratory behavior of a mouse is a two-compartment light-dark activity box is monitored electrically and behavioral variables such as time spent in the lit versus dark compartments, rearings in either of the two compartments, number of transitions between the two compartments and other exploratory behavioral variables are recorded.

mice = assay: exploratory light/dark method in mice (two-compartment light-dark activity box); format: in vivo; details: for minimal effective dose: Mus musculus, read-out: Light/Dark: minimum effective dose; for Light/Dark: % time spent in lit area: at minimum effective dose
Description: as §1

[1] = competitive binding vs [^3 H]8-OH-DPAT, dog hippocampus membrane, buspirone value is an average, read-out: 5HT1A IC50

| Structure (SMILES) | IC50 (5HT1A receptors; [1]) | further results |
| --- | --- | --- |
| CCOc1ccccc1N1CCN(CCCCC2CN(C)C(=O)O2)CC1 (stereo not drawn) [Example 9, 5-[4-[4-(2-Ethoxyphenyl)-1-piperazinyl]butyl]-3-methyl-2-oxazolidinone dihydrochloride] | 0.016 µM | – |
| CCOc1ccccc1N1CCN(CCCC2CN(C)C(=O)O2)CC1 (stereo not drawn) [Example 8, 5-[3-[4-(2-Ethoxyphenyl)-1-piperazinyl]propyl]-3-methyl-2-oxazolidinone] | 0.022 µM | – |
| CN1CC(CCCN2CCN(c3ncccn3)CC2)OC1=O (stereo not drawn) [Example 7, 3-Methyl-5-[3-[4-(2-pyrimidinyl)-1-piperazinyl]propyl]-2-oxazolidinone] | 0.51 µM | – |
| CN1CC(CCCN2CCN(c3ccccn3)CC2)OC1=O (stereo not drawn) [Example 6, 3-Methyl-5-[3-[4-(2-pyridinyl)-1-piperazinyl]propyl]-2-oxazolidinone hydrochloride hydrate (2:4:1)] | 0.11 µM | – |
| COc1ccccc1N1CCN(CCCCC2CN(C)C(=O)O2)CC1.Cl.Cl (stereo not drawn) [Example 3, 5-[4-[4-(2-Methoxyphenyl)-1-piperazinyl]butyl]-3-methyl-2-oxazolidinone dihydrochloride] | 0.015 µM | minimal effective dose (mice; mice, IP): 3.16 mg/kg; Light/Dark: % time spent in lit area (mice; mice, IP): 53% |
| CN1CC(CCCCN2CCN(c3ccccn3)CC2)OC1=O (stereo not drawn) [Example 2, 3-Methyl-5-[4-[4-(2-pyridinyl)-1-piperazinyl]butyl]-2-oxazolidinone] | 0.061 µM | minimal effective dose (mice; mice, IP): 3.16 mg/kg; Light/Dark: % time spent in lit area (mice; mice, IP): 53% |
| C=CCOc1ccccc1N1CCN(CCCCC2CN(C)C(=O)O2)CC1 (stereo not drawn) [Example 12, 8-methyl-5-[4-[4-[2(2-propenyloxy)phenyl]-1-piperazinyl]butyl]-2-oxazolidinone hydrochloride hydrate (2:4:1)] | 0.02 µM | minimal effective dose (mice; mice, IP): 1 mg/kg; Light/Dark: % time spent in lit area (mice; mice, IP): 66% |
| CN1CC(CCCCN2CCN(c3ncccn3)CC2)OC1=O (stereo not drawn) [Example 4, 3-Methyl-5-[4-[4-(2-pyrimidinyl)-1-piperazinyl]butyl]-2-oxazolidinone] | 0.19 µM | – |
| CN1CC(CCCCN2CCN(c3ccccc3O)CC2)OC1=O (stereo not drawn) [Example 11, 5-[4-[4-(2-Hydroxyphenyl)-1-piperazinyl]butyl]-3-methyl-2-oxazolidinone] | 0.04 µM | – |
| CN1CC(CCCN2CCN(c3ccccc3O)CC2)OC1=O (stereo not drawn) [Example 10, 5-[3-[4-(2-hydroxyphenyl)-1-piperazinyl]propyl]-3-methyl-2-oxazolidinone] | 0.11 µM | – |
| O=C1OC(CCCN2CCN(c3ncccn3)CC2)CN1c1ccccc1 (stereo not drawn) [Example 20, 3-Phenyl-5-[3-[4-(2-pyrimidinyl)-1-piperazinyl]propyl]2-oxazolidinone] | 0.17 µM | – |
| O=C1CC2(CCCC2)CC(=O)N1CCCCN1CCN(c2ncccn2)CC1 [Buspirone, buspirone, reference compound] | – | IC50 (5HT1A receptors): 0.0132 µM; minimal effective dose (mice; ip): 5.62 mg/kg; minimal effective dose (mice; po): 5.62 mg/kg; Light/Dark: % time spent in lit area (mice; mice, IP): 51%; Light/Dark: % time spent in lit area (mice; mice, PO): 54% |
| COc1ccccc1N1CCN(CCCC2CN(C)C(=O)O2)CC1 (stereo not drawn) [Example 5, 5-[3-[4-(2-Methoxyphenyl)-1-piperazinyl]propyl]-3-methyl-2-oxazolidinone hydrochloride hydrate (2:2:3)] | 0.029 µM | – |

More lines, main results first:

| IC50 (5HT1A receptors; [1]) | Structure (SMILES) | further results |
| --- | --- | --- |
| 0.0077 µM | O=C1OC(CCCCN2CCN(c3ccccn3)CC2)CN1c1ccccc1 (stereo not drawn) [Example 14, 3-Phenyl-5-[4-[4-(2-pyridinyl)-1-piperazinyl]butyl]-2-oxazolidinone] | – |
| 0.029 µM | O=C1OC(CCCCN2CCN(c3ncccn3)CC2)CN1c1ccccc1 (stereo not drawn) [Example 15, 3-Phenyl-5-[4-[4-(2-pyrimidinyl)-1-piperazinyl]butyl]-2-oxazolidinone] | – |
| 0.018 µM | CCOc1ccccc1N1CCN(CCCC2CN(c3ccccc3)C(=O)O2)CC1 (stereo not drawn) [Example 21, 5-[3-[4-(2-Ethoxyphenyl)-1-piperazinyl]propyl]-3-phenyl-2-oxazolidinone hydrochloride hydrate (2:4:1)] | – |
| 0.015 µM | O=C1OC(CCCCN2CCN(c3ccccc3O)CC2)CN1c1ccccc1 (stereo not drawn) [Example 17, 5-[4-[4-(2-hydroxyphenyl)-1-piperazinyl]butyl]-3-phenyl-2-oxazolidinone] | – |
| 0.057 µM | O=C1OC(CCCN2CCN(c3ccccn3)CC2)CN1c1ccccc1 (stereo not drawn) [Example 19, 3-Phenyl-5-[3-[4-(2-pyridinyl)-1-piperazinyl]propyl]-2-oxazolidinone] | – |
| 0.0082 µM | O=C1OC(CCCCN2CCN(c3ccccc3)CC2)CN1c1ccccc1 (stereo not drawn) [Example 16, 3-Phenyl-5-[4-(4-phenyl-1-piperazinyl)butyl]-2-oxazolidinone] | – |
| 0.0022 µM | COc1ccccc1N1CCN(CCCCC2CN(c3ccccc3)C(=O)O2)CC1 (stereo not drawn) [Example 13, 5-[4-[4-(2-Methoxyphenyl)-1-piperazinyl]butyl]-3-phenyl-2-oxazolidinone hydrochloride hydrate (2:2:1)] | – |
| 0.002 µM | CCOc1ccccc1N1CCN(CCCCC2CN(c3ccccc3)C(=O)O2)CC1 (stereo not drawn) [Example 18, 5-[4-[4-(2-Ethoxyphenyl)-1-piperazinyl]butyl]-3-phenyl-2-oxazolidinone hydrochloride hydrate (2:4:1)] | – |
| 0.059 µM | CN1CC(CCCCN2CCN(c3ccccc3)CC2)OC1=O (stereo not drawn) [Example 1, 3-Methyl-5-[4-(4-phenyl-1-piperazinyl)butyl]-2-oxazolidinone] | minimal effective dose (mice; mice, IP): 10 mg/kg; Light/Dark: % time spent in lit area (mice; mice, IP): 56% |
| 0.05 µM | O=C1OC(CCCN2CCN(c3ccccc3)CC2)CN1c1ccccc1 (stereo not drawn) [Example 22] | – |
| 0.011 µM | COc1ccccc1N1CCN(CCCC2CN(c3ccccc3)C(=O)O2)CC1 (stereo not drawn) [Example 23, 5-[3-[4-(2-Methoxyphenyl)-1-piperazinyl]propyl]-3-phenyl-2-oxazolidinone hydrochloride hydrate (1:2)] | – |
